Assays:
[1] = system: flowering plants; experiment: Watering of house plants with D-ribose solution, observation of blooming; type: in vivo; settings: 5 grams of D-ribose to one gallon of water, after MIRACLE-GRO was stopped
Source text: (§1) Plants treated with a solution of D-ribose in this example included Orchids, Christmas Cactus, Palm, Mother's-in-law Tongue/Snake Plant, Rosemary, Bamboo, Pothos, Hibiscus, Jade, Purple Passion, Aloe vera, Schefflera, Cacti, and Norfolk Island Pine.
(§2) The use of MIRACLE-GRO liquid plant food was stopped, then the use of a solution of D-ribose to treat the plants was started. Each week a fresh solution of D-ribose was made using 5 grams of D-ribose to one gallon of water.
Specific observations are noted below. While all the plants were extremely healthy and grew exceptionally well, traditional flowering varieties performed amazingly well.

[2] = system: Purple Waffle; experiment: Growth of Purple Waffle plants over a 9 month period with weekly feeding; type: in vivo; settings: 1× (1.5 mg/ml) or 2× (3 mg/ml) D-ribose weekly, versus control and MIRACLE-GRO fed plant
Method: The growth of four plants was observed over a 9 month period. One plant was not fed (control), but watered weekly. One plant was fed MIRACLE-GRO liquid plant food weekly based on product instructions of feeding every time you water by squeezing 10-20 drops into 1 quart of water. One plant was fed 1× (1.5 mg/ml) D-ribose weekly. One plant was fed 2× (3 mg/ml) D-ribose weekly.

[3] = system: Palm; experiment: Watering with D-ribose solution, blooming of Palm; type: in vivo; settings: plant had not bloomed in approximately fifteen years; 5 grams of D-ribose to one gallon of water
Source text: as §1, §2
This is typically regarded as a non-flowering type of plant. This plant had not bloomed in approximately fifteen years.

[4] = system: Orchids; experiment: Watering with D-ribose solution, blooming of orchids; type: in vivo; settings: 5 grams of D-ribose to one gallon of water
Source text: as §1, §2
The first subject was an orchid which had not bloomed in six plus years.

[5] = system: Snake Plant; experiment: Watering with D-ribose solution, blooming of Snake Plant; type: in vivo, Mother's-in-law Tongue/Snake Plant; settings: had not bloomed in over 15 years, indoor plant; 5 grams of D-ribose to one gallon of water
Source text: as §1, §2
This is another example of plant typically regarded as a non-flowering type plant. […] It had not bloomed in over 15 years. While flowers on this plant are not unheard of, it is uncommon to bloom in the Minnesota climate and as an indoor plant.

[6] = system: Hibiscus; experiment: Watering with D-ribose solution, blooming of Hibiscus; type: in vivo; settings: indoors for the winter months; 5 grams of D-ribose to one gallon of water
Source text: as §1, §2
This plant was taken inside in October for the winter months.

[7] = system: Christmas Cactus; experiment: Watering with D-ribose solution, blooming of Christmas Cactus; type: in vivo; settings: typically blooms only around Christmas and Easter; 5 grams of D-ribose to one gallon of water
Source text: as §1, §2
This variety of plant typically only blooms around the Christmas and Easter holidays each year for a few weeks up to a month or so, then it stops blooming.

`O=C[C@H](O)[C@H](O)[C@H](O)CO` [D-ribose] was tested, and the “blooming observed in treated plants” value [1] was “Sustained blooming in many of the flowering plants”, the branching [2] was “increased branching compared to both the control and the MIRACLE-GRO fed plant” and the “blooming / flowering growth” value [3] was “grew an unusual type of growth that appeared to be a flowering/seed mechanism on two different stems”. For the same molecule, the “blooming, first orchid” value ([4]; orchid which had not bloomed in six plus years) was “sparked two new stems full of blooms”, the “blooming, second orchid” value ([4]; orchid which had not bloomed in three plus years) was “showed the same results as subject one” and the “blooming / flowering growth” value [5] was “grew unusual growths that appeared to be some type of flowering appendage”. For the same molecule, the blooming [6] was “continuously bloomed” and the blooming [7] was “started to bloom early and sustained an abundance of continued blooms”.

Source: patent publication US20140256555A1, “METHODS FOR TREATING FLOWERING PLANTS WITH RIBOSE” (RiboCor, Inc., priority 2013, published 2014)
